Measured values from PMC11181336, “Discovery of ITI-333, a Novel Orally Bioavailable Molecule Targeting Multiple Receptors for the Treatment of Pain and Other Disorders” (Journal of Medicinal Chemistry, 2024).
Where two headings read alike, the source gives them in different places.

Assays:
[1] = molecular target: T1, human recombinant 5-HT transporter (SERT) (Homo sapiens, UniProt P31645); test: biochemical; type: binding; details: for inhibition at 0.1 µM / inhibition at 0.2 µM: read-out: SERT % inhibition
T1 construct: host or cells: CHO-S / SERT (h), cell membrane homogenates
T1 sequence (P31645 whole entry): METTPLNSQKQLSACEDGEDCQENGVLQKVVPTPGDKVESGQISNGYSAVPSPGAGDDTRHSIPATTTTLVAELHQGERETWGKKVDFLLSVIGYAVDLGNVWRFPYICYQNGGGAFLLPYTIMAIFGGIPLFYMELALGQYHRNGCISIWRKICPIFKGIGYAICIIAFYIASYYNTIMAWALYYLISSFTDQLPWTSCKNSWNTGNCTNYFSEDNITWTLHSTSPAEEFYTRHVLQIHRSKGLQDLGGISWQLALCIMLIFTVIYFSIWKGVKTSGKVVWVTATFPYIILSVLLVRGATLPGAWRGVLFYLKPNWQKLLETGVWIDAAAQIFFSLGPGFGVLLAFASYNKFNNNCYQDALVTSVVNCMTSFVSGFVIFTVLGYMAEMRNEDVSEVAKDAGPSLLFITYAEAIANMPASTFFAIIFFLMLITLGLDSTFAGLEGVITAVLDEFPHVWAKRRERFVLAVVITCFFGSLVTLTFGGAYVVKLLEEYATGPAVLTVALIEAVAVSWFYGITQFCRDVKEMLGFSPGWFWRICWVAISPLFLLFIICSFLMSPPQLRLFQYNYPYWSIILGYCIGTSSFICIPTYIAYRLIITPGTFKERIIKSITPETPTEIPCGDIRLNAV

[2] = molecular target: human recombinant dopamine D1 receptor (Homo sapiens, UniProt P21728); test: Dopamine D1 receptor binding, [3H]SCH 23390 displacement; details: for inhibition at 0.1 µM: read-out: D1 % inhibition
Sequence of human recombinant dopamine D1 receptor (P21728 whole entry): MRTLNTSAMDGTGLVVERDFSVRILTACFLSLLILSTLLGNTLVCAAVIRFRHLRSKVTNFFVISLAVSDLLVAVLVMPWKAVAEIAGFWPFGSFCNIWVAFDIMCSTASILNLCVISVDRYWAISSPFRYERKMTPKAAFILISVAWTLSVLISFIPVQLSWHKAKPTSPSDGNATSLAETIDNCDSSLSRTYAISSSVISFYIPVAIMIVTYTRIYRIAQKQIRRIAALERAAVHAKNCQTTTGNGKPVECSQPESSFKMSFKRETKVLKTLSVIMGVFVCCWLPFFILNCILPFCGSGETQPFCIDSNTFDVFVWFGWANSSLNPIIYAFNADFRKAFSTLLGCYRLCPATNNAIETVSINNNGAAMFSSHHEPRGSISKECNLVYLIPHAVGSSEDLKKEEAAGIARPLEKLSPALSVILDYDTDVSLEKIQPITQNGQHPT

[3] = molecular target: T2, human full-length recombinant serotonin 5-HT2A receptors (Homo sapiens, UniProt P28223); test: biochemical; type: binding; details: for inhibition at 0.1 µM: read-out: 5-HT2A % inhibition
T2 construct: human full-length recombinant serotonin 5-HT2A receptors expressed in HEK-293E cells
T2 sequence (P28223 whole entry): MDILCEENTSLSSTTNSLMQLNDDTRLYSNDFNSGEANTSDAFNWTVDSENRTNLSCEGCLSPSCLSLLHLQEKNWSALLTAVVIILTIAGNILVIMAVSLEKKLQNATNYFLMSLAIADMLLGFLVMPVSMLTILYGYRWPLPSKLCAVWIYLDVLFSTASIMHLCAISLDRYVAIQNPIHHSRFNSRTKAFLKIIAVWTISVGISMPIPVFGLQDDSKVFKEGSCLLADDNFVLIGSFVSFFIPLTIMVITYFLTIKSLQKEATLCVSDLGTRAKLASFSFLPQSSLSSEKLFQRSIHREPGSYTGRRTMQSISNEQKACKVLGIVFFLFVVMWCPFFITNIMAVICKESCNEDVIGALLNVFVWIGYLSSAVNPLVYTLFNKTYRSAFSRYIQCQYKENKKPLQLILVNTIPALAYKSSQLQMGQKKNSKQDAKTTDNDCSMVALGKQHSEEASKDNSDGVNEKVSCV

[4] = molecular target: human recombinant dopamine D2 short receptor (Homo sapiens, UniProt P14416); test: Dopamine D2 receptor binding, [3H]7-OH-DPAT displacement; details: for inhibition at 0.1 µM: read-out: D2 % inhibition
Sequence of human recombinant dopamine D2 short receptor (P14416 1-414 isoform P14416-2): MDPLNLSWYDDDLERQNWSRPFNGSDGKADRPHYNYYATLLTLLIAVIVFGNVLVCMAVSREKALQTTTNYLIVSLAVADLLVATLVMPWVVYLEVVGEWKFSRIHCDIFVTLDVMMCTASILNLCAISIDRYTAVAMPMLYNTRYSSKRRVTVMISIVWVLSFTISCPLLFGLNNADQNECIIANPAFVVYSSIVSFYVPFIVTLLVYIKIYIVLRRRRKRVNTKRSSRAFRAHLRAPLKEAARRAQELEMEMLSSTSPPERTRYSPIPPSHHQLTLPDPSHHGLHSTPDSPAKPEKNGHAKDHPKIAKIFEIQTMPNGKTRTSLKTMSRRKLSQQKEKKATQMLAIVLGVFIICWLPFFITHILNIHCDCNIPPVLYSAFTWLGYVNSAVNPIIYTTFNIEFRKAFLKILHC

[5] = inhibition at 100 nM, NI = no inhibition

Compound | inhibition at 0.1 µM [1] [%] | inhibition at 0.2 µM [1] [%] | inhibition at 0.1 µM [3] [%] | inhibition at 0.1 µM [4, 5] [%] | inhibition at 0.1 µM [2, 5] [%] | further results
O=C1CN2c3c(cccc3[C@@H]3CN(CCCOc4ccc(F)cc4)CC[C@H]32)N1 (racemic) [compound 20, (±)-(trans)-8-(3-(4-Fluorophenoxy)propyl)-6b,7,8,9,10,10a-hexahydro-1H-pyrido[3′,4′:4,5]pyrrolo[1,2,3-de]quinoxalin-2(3H)-one] | < 0 | – | – | – | – | D1(Ki or (% Inhibition)): % inhibition [2]: 5.6 (79%); inhibition at 0.1 µM [2]: 79%
CCCCN1CC[C@H]2[C@@H](C1)c1cccc3c1N2CC(=O)N3 [compound 21, (6bR,10aS)-8-Butyl-6b,7,8,9,10,10a-hexahydro-1H-pyrido[3′,4′:4,5]pyrrolo[1,2,3-de]quinoxalin-2(3H)-one] | – | < 0 | < 0 | 15 | < 0 | –
O=C1CN2c3c(cccc3[C@@H]3CN(CCCO)CC[C@@H]32)N1 [compound 22, (6bR,10aS)-8-(3-Hydroxypropyl)-6b,7,8,9,10,10a-hexahydro-1H-pyrido[3′,4′:4,5]pyrrolo[1,2,3-de]quinoxalin-2(3H)-one] | – | < 0 | 8 | < 0 | < 0 | –
O=C1CN2c3c(cccc3[C@@H]3CN(CCCOc4ccccc4)CC[C@@H]32)N1 [compound 23, (6bR,10aS)-8-(3-Phenoxypropyl)-6b,7,8,9,10,10a-hexahydro-1H-pyrido[3′,4′:4,5]-pyrrolo[1,2,3-de]quinoxalin-2(3H)-one] | – | 8 | 84 | – | – | Ki [3]: 2.8 nM; inhibition at 0.1 µM [4]: 34%; inhibition at 0.1 µM [2]: 24%
O=C1CN2c3c(cccc3[C@@H]3CN(CCCc4n[nH]c5cc(F)ccc45)CC[C@@H]32)N1 [compound 24, (6bR,10aS)-8-(3-(6-Fluoro-1H-indazol-3-yl)propyl)-6b,7,8,9,10,10a-hexahydro-1H-pyrido[3′,4′:4,5]pyrrolo-[1,2,3-de]quinoxalin-2(3H)-one] | – | – | – | – | – | Ki [1]: 540 nM; Ki [3]: 2.6 nM; Ki [4]: 15 nM; Ki [2]: 5.2 nM
O=C1CN2c3c(cccc3[C@@H]3CN(CCCc4noc5cc(F)ccc45)CC[C@@H]32)N1 [compound 26, (6bR,10aS)-8-(3-(6-Fluorobenzo[d]isoxazol-3-yl)propyl)-6b,7,8,9,10,10a-hexahydro-1H-pyrido[3′,4′:4,5]-pyrrolo[1,2,3-de]quinoxalin-2(3H)-one] | – | – | – | – | – | Ki [3]: 3.1 nM; Ki [4]: 84 nM; fold weaker affinity to dopamine D2 receptors [4]: over 5 fold; Ki [2]: 13 nM
O=C1CN2c3c(cccc3[C@@H]3CN(CCCOc4ccc5c(c4)OCO5)CC[C@@H]32)N1 [compound 28, (6bR,10aS)-8-(3-(Benzo[d][1,3]dioxol-5-yloxy)propyl)-6b,7,8,9,10,10a-hexahydro-1H-pyrido[3′,4′:4,5]-pyrrolo[1,2,3-de]quinoxalin-2(3H)-one] | – | – | < 0 | – | < 0 | –
O=C1CN2c3c(cccc3[C@@H]3CN(CCCOc4ccc(Br)cc4)CC[C@@H]32)N1 [compound 30, (6bR,10aS)-8-(3-(4-Bromophenoxy)propyl)-6b,7,8,9,10,10a-hexahydro-1H-pyrido[3′,4′:4,5]pyrrolo-[1,2,3-de]quinoxalin-2(3H)-one] | 44 | – | 70 | 8.4 | < 0 | –
Cc1ccc(OCCCN2CC[C@H]3[C@@H](C2)c2cccc4c2N3CC(=O)N4)cc1 [compound 32, (6bR,10aS)-8-(3-(p-Tolyloxy)propyl)-6b,7,8,9,10,10a-hexahydro-1H-pyrido[3′,4′:4,5]pyrrolo[1,2,3-de]-quinoxalin-2(3H)-one] | 9.6 | – | 62 | 20 | 13 | –
O=C1CN2c3c(cccc3[C@@H]3CN(CCCOc4ccc(O)cc4)CC[C@@H]32)N1 [compound 33, (6bR,10aS)-8-(3-(4-Hydroxyphenoxy)propyl)-6b,7,8,9,10,10a-hexahydro-1H-pyrido[3′,4′:4,5]pyrrolo-[1,2,3-de]quinoxalin-2(3H)-one] | 11 | – | 77 | 41 | < 0 | –
COc1ccc(OCCCN2CC[C@H]3[C@@H](C2)c2cccc4c2N3CC(=O)N4)cc1 [compound 34, (6bR,10aS)-8-(3-(4-Methoxyphenoxy)propyl)-6b,7,8,9,10,10a-hexahydro-1H-pyrido[3′,4′:4,5]pyrrolo-[1,2,3-de]quinoxalin-2(3H)-one] | 10 | – | < 0 | – | < 0 | –
O=C1CN2c3c(cccc3[C@@H]3CN(CCCOc4ccc(OCc5ccccc5)cc4)CC[C@@H]32)N1 [compound 35, (6bR,10aS)-8-(3-(4-(Benzyloxy)phenoxy)propyl)-6b,7,8,9,10,10a-hexahydro-1H-pyrido[3′,4′:4,5]-pyrrolo[1,2,3-de]quinoxalin-2(3H)-one] | 68 | – | 76 | 23 | 4.6 | –
O=C1CN2c3c(cccc3[C@@H]3CN(CCCOc4ccccc4F)CC[C@@H]32)N1 [compound 36, (6bR,10aS)-8-(3-(2-Fluorophenoxy)propyl)-6b,7,8,9,10,10a-hexahydro-1H-pyrido[3′,4′:4,5]pyrrolo[1,2,3-de]quinoxalin-2(3H)-one] | 5.1 | – | 87 | 28 | 18 | –
O=C1CN2c3c(cccc3[C@@H]3CN(CCCOc4cccc(F)c4)CC[C@@H]32)N1 [compound 37, (6bR,10aS)-8-(3-(3-Fluorophenoxy)propyl)-6b,7,8,9,10,10a-hexahydro-1H-pyrido[3′,4′:4,5]pyrrolo[1,2,3-de]quinoxalin-2(3H)-one] | 7.7 | – | 78 | 14 | 32 | –
NC(=O)c1cc(F)ccc1OCCCN1CC[C@H]2[C@@H](C1)c1cccc3c1N2CC(=O)N3 [compound 38, 5-Fluoro-2-(3-((6bR,10aS)-2-oxo-2,3,6b,9,10,10a-hexahydro-1H-pyrido[3′,4′:4,5]pyrrolo[1,2,3-de]quinoxalin-8(7H)-yl)propoxy)benzamide] | 9.6 | – | 14 | < 0 | < 0 | –
O=C1CN2c3c(cccc3[C@@H]3CN(CCCOc4ccc(F)c(F)c4)CC[C@@H]32)N1 [compound 39, (6bR,10aS)-8-(3-(3,4-Difluorophenoxy)propyl)-6b,7,8,9,10,10a-hexahydro-1H-pyrido[3′,4′:4,5]pyrrolo-[1,2,3-de]quinoxalin-2(3H)-one] | – | 15 | 71 | – | – | Ki [1]: 508 nM; SERT (Ki or (% Inhibition)): % inhibition [1]: 508 (15%); 5-HT2A (Ki or (% Inhibition)): % inhibition [3]: 16.1 (71%); Ki [3]: 16.1 nM; fold reduction of affinity to 5-HT2A receptors [3]: approximately 6 fold; D2(Ki or (% Inhibition)): % inhibition [4]: 1620 (7%); Ki [4]: 1620 nM; inhibition at 0.1 µM [4]: 7%; D1(Ki or (% Inhibition)): % inhibition [2]: 232 (15%); Ki [2]: 232 nM; inhibition at 0.1 µM [2]: 15%
Cc1cc(F)cc(C)c1OCCCN1CC[C@H]2[C@@H](C1)c1cccc3c1N2CC(=O)N3 [compound 43, (6bR,10aS)-8-(3-(4-Fluoro-2,6-dimethylphenoxy)propyl)-6b,7,8,9,10,10a-hexahydro-1H-pyrido[3′,4′:4,5]-pyrrolo[1,2,3-de]quinoxalin-2(3H)-one] | – | 34 | 40 | – | – | inhibition at 0.1 µM [4]: < 0%; inhibition at 0.1 µM [2]: < 0%
O=C1CN2c3c(cccc3[C@@H]3CN(CCCS(=O)(=O)c4ccc(F)cc4)CC[C@@H]32)N1 [compound 46, (6bR,10aS)-8-(3-((4-Fluorophenyl)sulfonyl)propyl)-6b,7,8,9,10,10a-hexahydro-1H-pyrido[3′,4′:4,5]-pyrrolo-[1,2,3-de]quinoxalin-2(3H)-one] | – | < 0 | 33 | < 0 | < 0 | –
CN(CCCN1CC[C@H]2[C@@H](C1)c1cccc3c1N2CC(=O)N3)c1ccc(F)cc1 [compound 48, (6bR,10aS)-8-(3-((4-Fluorophenyl)(methyl)amino)propyl)-6b,7,8,9,10,10a-hexahydro-1H-pyrido[3′,4′:4,5]pyrrolo[1,2,3-de]quinoxalin-2(3H)-one] | – | 53 | 76 | 14 | 21 | –
O=C1CN2c3c(cccc3[C@@H]3CN(CCOc4ccc(F)cc4)CC[C@@H]32)N1 [compound 49, (6bR,10aS)-8-(2-(4-Fluorophenoxy)ethyl)-6b,7,8,9,10,10a-hexahydro-1H-pyrido[3′,4′:4,5]pyrrolo[1,2,3-de]quinoxalin-2(3H)-one] | < 0 | – | 48 | 24 | 10 | –
O=C1CN2c3c(cccc3[C@@H]3CN(CCCCOc4ccc(F)cc4)CC[C@@H]32)N1 [compound 50, (6bR,10aS)-8-(4-(4-Fluorophenoxy)butyl)-6b,7,8,9,10,10a-hexahydro-1H-pyrido[3′,4′:4,5]pyrrolo[1,2,3-de]quinoxalin-2(3H)-one] | < 0 | – | 37 | 27 | 5.4 | –
O=C1CN2c3c(cccc3[C@H]3CN(CCCOc4ccc(F)cc4)CC[C@H]32)N1 [compound 54, (6bS,10aR)-8-(3-(4-Fluorophenoxy)propyl)-6b,7,8,9,10,10a-hexahydro-1H-pyrido[3′,4′:4,5]pyrrolo[1,2,3-de]quinoxalin-2(3H)-one] | < 0 | – | – | – | – | D1(Ki or (% Inhibition)): % inhibition [2]: 75 (50%); inhibition at 0.1 µM [2]: 50%
